Data taken from patent US8377974B2 (Millennium Pharmaceuticals, Inc., priority 2004, dated 2013).

Target: T1, human plasma protein factor Xa (Homo sapiens, UniProt P00742)
T1 construct: measure proteolytic activity of the enzyme (factor Xa); purchased Haematologic Technologies (Essex Junction, Vt.); host or cells: human plasma
Assay: Factor Xa IC50 determination: cleavage of paranitroanilide substrate S-2765 in 96-well plates
Assay type: biochemical
Conditions: fXa 1 nM, S-2765 100 μM, Tris buffered saline pH 7.4, room temperature
Source text: This example illustrates methods for evaluating the compounds of the invention, along with results obtained for such assays. The in vitro and in vivo Factor Xa isoform activities of the inventive compounds can be determined by various procedures known in the art, such as a test for their ability to inhibit the activity of the Factor Xa isoform. […] The IC50 value is the concentration (in nM) of the compound required to provide 50% inhibition of Factor Xa isoform.
An in vitro assay for detecting and measuring inhibition activity against Factor Xa is as follows:
The substrate S-2765 (Z-D-Arg-Gly-Arg-pNA.HCl) was obtained from Diapharma (West Chester, Ohio).
The human plasma protein factor Xa was purchased from Haematologic Technologies (Essex Junction, Vt.).
All assays, which are performed in 96-well microtiter plates, measure proteolytic activity of the enzyme (factor Xa) by following cleavage of paranitroanilide substrate. The assay buffer used for proteolytic assays was Tris buffered saline (20 mM Tris, 150 mM NaCl, 5 mM CaCl2, 0.1% Bovine serum albumin (BSA), 5% Dimethly Sulfoxide (DMSO) pH 7.4). In a 96-well microtiter plate, inhibitor was serially diluted to give a range of concentrations from 0.01 nM to 10 μM (final). Duplicate sets of wells were assayed and control wells without inhibitor were included. Enzyme was added to each well, (fXa concentration=1 nM), the plate was shaken for 5 seconds and then incubated for 5 minutes at room temperature. S2765 was added (100 μM final) and the plate was shaken for 5 seconds (final liquid volume in each well was 200 μl). The degree of substrate hydrolysis was measured at 405 nm on a Thermomax plate reader (Molecular Devices, Sunnyvale, Calif.) for 2 minutes. The initial velocities (mOD/min), for each range of inhibitor concentrations, were fitted to a four parameter equation using Softmax data analysis software. The parameter C, derived from the resulting curve-fit, corresponded to the concentration for half maximal inhibition (IC50).

T1 sequence (P00742 235-488 limits assumed): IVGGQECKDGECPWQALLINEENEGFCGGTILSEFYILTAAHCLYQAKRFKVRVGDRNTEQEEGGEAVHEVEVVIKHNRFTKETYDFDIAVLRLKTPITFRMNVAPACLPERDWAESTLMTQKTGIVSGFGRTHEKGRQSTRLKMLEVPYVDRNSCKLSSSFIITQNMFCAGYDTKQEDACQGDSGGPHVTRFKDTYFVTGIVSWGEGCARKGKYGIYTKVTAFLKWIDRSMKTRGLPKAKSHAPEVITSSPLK
T1 sequence (P00742 41-179 partner limits assumed): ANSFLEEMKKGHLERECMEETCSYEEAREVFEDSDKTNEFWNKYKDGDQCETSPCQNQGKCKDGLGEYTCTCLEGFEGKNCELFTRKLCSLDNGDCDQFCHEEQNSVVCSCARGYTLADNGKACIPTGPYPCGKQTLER

SMILES | IC50 [nM]
COc1ccc(C2=NOC(CNC(=O)c3ccc(Cl)s3)C2)cc1 (stereo not drawn) [Example 150, 5-Chloro-thiophene-2-carboxylic acid [3-(4-methoxy-phenyl)-4,5-dihydro-isoxazol-5-ylmethyl]-amide] | ≥ 500
O=C(NCc1cn(-c2ccc(-n3ccccc3=O)nc2)nn1)c1ccc(Cl)s1 [Example 389, 5-Chloro-N-((1-(6-(2-oxopyridin-1(2H)-yl)pyridin-3-yl)-1H-1,2,3-triazol-4-yl)methyl)thiophene-2-carboxamide] | ≤ 100
CN1CCN=C1c1ccc(-c2csc(CNC(=O)c3ccc(Cl)s3)n2)cc1 [Example 361, 5-Chloro-N-((4-(4-(1-methyl-4,5-dihydro-1H-imidazol-2-yl)phenyl)thiazol-2-yl)methyl)thiophene-2-carboxamide] | ≥ 500
N=C(c1ccc(C2=NOC(CNC(=O)c3ccc(Cl)s3)C2)c(N2CCOCC2)c1)N1CCCCC1 (stereo not drawn) [Example 85, 5-Chloro-thiophene-2-carboxylic acid {3-[4-(imino-piperidin-1-yl-methyl)-2-morpholin-4-yl-phenyl]-4,5-dihydro-isoxazol-5-ylmethyl}-amide] | 100 to 500
O=C(NCc1cc(-c2ccc(C(=O)N3CCCC3)cc2)no1)c1ccc(Cl)s1 [Example 167, 5-Chloro-thiophene-2-carboxylic acid {3-[4-(pyrrolidine-1-carbonyl)-phenyl]-isoxazol-5-ylmethyl}-amide] | 100 to 500
CC(C)Oc1cc(C(=N)N(C)C)ccc1C1=NOC(CNC(=O)c2ccc(Cl)s2)C1 (stereo not drawn) [Example 109, 5-Chloro-thiophene-2-carboxylic acid {3-[4-(N,N-dimethyl-carbamimidoyl)-2-isopropoxy-phenyl]-4,5-dihydro-isoxazol-5-ylmethyl}-amide] | ≤ 100
CC(=N)N1CCC(C2=NOC(CNC(=O)c3ccc(Cl)s3)C2)CC1 (stereo not drawn) [Example 173, 5-Chloro-thiophene-2-carboxylic acid {3-[1-(1-imino-ethyl)-piperidin-4-yl]-4,5-dihydro-isoxazol-5-ylmethyl}-amide] | ≥ 500
O=C(NCC1CC(c2ccc(-c3ccccc3Cl)cc2)=NO1)c1ccc(Cl)s1 (stereo not drawn) [Example 184, 5-Chloro-thiophene-2-carboxylic acid [3-(2′-chloro-biphenyl-4-yl)-4,5-dihydro-isoxazol-5-ylmethyl]-amide] | ≥ 500
CSc1cc(C2=NCCN2C)ccc1-c1cc(CNC(=O)c2ccc(Cl)s2)on1 [Example 141, 5-Chloro-thiophene-2-carboxylic acid {3-[4-(1-methyl-4,5-dihydro-1H-imidazol-2-yl)-2-methylsulfanyl-phenyl]-isoxazol-5-ylmethyl}-amide] | ≤ 100
CCN(C)C(=N)c1ccc(C2=NOC(CNC(=O)c3ccc(Cl)s3)C2)cc1 (stereo not drawn) [Example 18, 5-Chloro-thiophene-2-carboxylic acid {3-[4-(N-ethyl-N-methyl-carbamimidoyl)-phenyl]-4,5-dihydro-isoxazol-5-ylmethyl}-amide] | ≤ 100
O=C(NCC1CC(c2ccc(-c3ccccc3CN3CCCC3)cc2)=NO1)c1ccc(Cl)s1 (stereo not drawn) [Example 195, 5-Chloro-thiophene-2-carboxylic acid [3-(2′-pyrrolidin-1-ylmethyl-biphenyl-4-yl)-4,5-dihydro-isoxazol-5-ylmethyl]-amide] | ≤ 100
O=C(NCc1cn(-c2ccc(N3CCCOCC3)nc2)nn1)c1ccc(Cl)s1 [Example 385, N-((1-(6-(1,4-Oxazepan-4-yl)pyridin-3-yl)-1H-1,2,3-triazol-4-yl)methyl)-5-chlorothiophene-2-carboxamide] | 100 to 500
O=C(O)c1ccc(-c2cc(CNC(=O)c3ccc(Cl)s3)on2)cc1 [Example 159, 4-(5-{[(5-Chloro-thiophene-2-carbonyl)-amino]-methyl}-isoxazol-3-yl)-benzoic acid] | ≥ 500
CC(O)CNC(=O)c1ccc(C2=NOC(CNC(=O)c3ccc(Cl)s3)C2)cc1 (stereo not drawn) [Example 399, N-((3-(4-((2-Hydroxypropyl)carbamoyl)phenyl)-4,5-dihydroisoxazol-5-yl)methyl)-5-chlorothiophene-2-carboxamide] | ≥ 500
CN(Cc1cc(-c2ccc(C(N3CCC3)=[N+]3CCC3)cc2)no1)C(=O)c1ccc(Cl)s1 [Example 41, 5-Chloro-thiophene-2-carboxylic acid {3-[4-(azetidin-1-yl-azetidin-1-ylidene-methyl)-phenyl]-isoxazol-5-ylmethyl}-methyl-amide] | ≥ 500
CN1CCN=C1c1ccc(-c2noc(CNC(=O)c3ccc(Cl)s3)n2)cc1 [Example 335, 5-Chloro-N-((3-(4-(1-methyl-4,5-dihydro-1H-imidazol-2-yl)phenyl)-1,2,4-oxadiazol-5-yl)methyl)thiophene-2-carboxamide] | ≤ 100
O=C(NCC1CC(c2ccc(-c3ccccn3)cc2)=NO1)c1ccc(Cl)s1 (stereo not drawn) [Example 219, 5-Chloro-thiophene-2-carboxylic acid [3-(4-pyridin-2-yl-phenyl)-4,5-dihydro-isoxazol-5-ylmethyl]-amide] | ≤ 100
O=C(NCc1nc(-c2ccc(-n3ccccc3=O)cc2)no1)c1ccc(Cl)s1 [Example 311, 5-Chloro-N-((3-(4-(2-oxopyridin-1(2H)-yl)phenyl)-1,2,4-oxadiazol-5-yl)methyl)thiophene-2-carboxamide] | ≤ 100
N=C(c1ccc(-c2csc(CNC(=O)c3ccc(Cl)s3)n2)cc1)N1CCCCC1 [Example 363, 5-Chloro-N-((4-(4-(imino(piperidin-1-yl)methyl)phenyl)thiazol-2-yl)methyl)thiophene-2-carboxamide] | ≥ 500
COC(=O)c1ccc(C2=NOC(CNC(=O)c3ccc(Cl)s3)C2)cc1 (stereo not drawn) [Example 156, 4-(5-{[(5-Chloro-thiophene-2-carbonyl)-amino]-methyl}-4,5-dihydro-isoxazol-3-yl)-benzoic acid methyl ester] | ≥ 500
CN(C)C(=N)c1ccc(-c2nc(CNC(=O)c3ccc(Cl)s3)cs2)cc1 [Example 350, N-((2-(4-(N,N-Dimethylcarbamimidoyl)phenyl)thiazol-4-yl)methyl)-5-chlorothiophene-2-carboxamide] | 100 to 500
CSc1cc(C(=N)N2CCCCC2)ccc1-c1cc(CNC(=O)c2ccc(Cl)s2)on1 [Example 143, 5-Chloro-thiophene-2-carboxylic acid {3-[4-(imino-piperidin-1-yl-methyl)-2-methylsulfanyl-phenyl]-isoxazol-5-ylmethyl}-amide] | ≥ 500
O=C(NCc1cn(-c2ccc(I)cc2F)nn1)c1ccc(Cl)s1 [Example 304, 5-Chloro-N-((1-(2-fluoro-4-iodophenyl)-1H-1,2,3-triazol-4-yl)methyl)thiophene-2-carboxamide] | ≥ 500
COCCN(C)C(=N)c1ccc(C2=NOC(CNC(=O)c3ccc(Cl)s3)C2)cc1 (stereo not drawn) [Example 14, 5-Chloro-thiophene-2-carboxylic acid (3-{4-[N-(2-methoxy-ethyl)-N-methyl-carbamimidoyl]-phenyl}-4,5-dihydro-isoxazol-5-ylmethyl)-amide] | 100 to 500
O=C(NCc1cn(-c2ccc(N3CCOCCC3=O)cc2)nn1)c1ccc(Cl)s1 [Example 303, 5-Chloro-N-((1-(4-(5-oxo-1,4-oxazepan-4-yl)phenyl)-1H-1,2,3-triazol-4-yl)methyl)thiophene-2-carboxamide] | ≤ 100
CN(C)CCN(C)C(=N)c1ccc(-c2nc(CNC(=O)c3ccc(Cl)s3)cs2)cc1 [Example 355, N-((2-(4-(N-(2-(Dimethylamino)ethyl)-N-methylcarbamimidoyl)phenyl)thiazol-4-yl)methyl)-5-chlorothiophene-2-carboxamide] | ≥ 500
CN1CCN=C1c1ccc(-c2cc(CNC(=O)c3ccc(Cl)s3)on2)c(N2CCOCC2)c1 [Example 99, 5-Chloro-thiophene-2-carboxylic acid {3-[4-(1-methyl-4,5-dihydro-1H-imidazol-2-yl)-2-morpholin-4-yl-phenyl]-isoxazol-5-ylmethyl}-amide] | ≤ 100
N=C(c1ccc(-c2cc(CNC(=O)c3ccc(Cl)s3)ccc2F)cc1)N1CCCC1 [Example 379, 5-Chloro-N-((3-(4-(imino(pyrrolidin-1-yl)methyl)phenyl)-4-fluorophenyl)methyl)thiophene-2-carboxamide] | ≤ 100
CCN(C)C(=N)c1ccc(-c2cc(CNC(=O)c3ccc(Cl)s3)on2)cc1 [Example 28, 5-Chloro-thiophene-2-carboxylic acid {3-[4-(N-ethyl-N-methyl-carbamimidoyl)-phenyl]-isoxazol-5-ylmethyl}-amide] | ≤ 100
COCCN(C)C(=N)c1ccc(-c2cc(CNC(=O)c3ccc(Cl)s3)on2)cc1 [Example 32, 5-Chloro-thiophene-2-carboxylic acid (3-{4-[N-(2-methoxy-ethyl)-N-methyl-carbamimidoyl]-phenyl}-isoxazol-5-ylmethyl)-amide] | ≤ 100
